Like-named read-outs stand apart in the source and are kept apart here.
How the values were obtained:
[1] = test system: Potassium Voltage-Gated Channel Kv non-selective, KCNQ1 (r); experiment: IPP KCNQ1 binding (antagonist radioligand); set-up: species or system rat
[2] = test system: Gamma-aminobutyric acid receptor subunit alpha-1 BZD site, GABRA1A (r); format: binding, rat
[3] = test system: Sodium channel protein type 5 subunit alpha (site 2), SCN5A (r); format: binding, rat
[4] = molecular target: T1, Adenosine receptor A2a, ADORA2A (h) (Homo sapiens, UniProt P29274); experiment: IPP ADORA2A binding (agonist radioligand); details: control NECA
T1 construct: purchased Eurofins Cerep (SafetyScreen44-based IPP panel)
T1 sequence (P29274 whole entry): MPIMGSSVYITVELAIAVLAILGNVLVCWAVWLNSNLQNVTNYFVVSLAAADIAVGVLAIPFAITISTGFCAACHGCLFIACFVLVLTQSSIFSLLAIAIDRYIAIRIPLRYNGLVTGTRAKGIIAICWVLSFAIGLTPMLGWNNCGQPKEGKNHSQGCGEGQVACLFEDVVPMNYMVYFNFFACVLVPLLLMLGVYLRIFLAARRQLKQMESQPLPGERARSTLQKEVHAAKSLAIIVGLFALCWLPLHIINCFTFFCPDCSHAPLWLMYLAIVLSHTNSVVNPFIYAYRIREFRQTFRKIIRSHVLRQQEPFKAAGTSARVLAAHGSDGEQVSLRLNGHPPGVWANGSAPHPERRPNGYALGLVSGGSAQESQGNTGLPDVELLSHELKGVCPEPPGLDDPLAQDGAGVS

[5] = molecular target: T2, Progesterone receptor, PGR (h) (Homo sapiens, UniProt P06401); experiment: biochemical; format: biochemical
T2 sequence (P06401 1-933): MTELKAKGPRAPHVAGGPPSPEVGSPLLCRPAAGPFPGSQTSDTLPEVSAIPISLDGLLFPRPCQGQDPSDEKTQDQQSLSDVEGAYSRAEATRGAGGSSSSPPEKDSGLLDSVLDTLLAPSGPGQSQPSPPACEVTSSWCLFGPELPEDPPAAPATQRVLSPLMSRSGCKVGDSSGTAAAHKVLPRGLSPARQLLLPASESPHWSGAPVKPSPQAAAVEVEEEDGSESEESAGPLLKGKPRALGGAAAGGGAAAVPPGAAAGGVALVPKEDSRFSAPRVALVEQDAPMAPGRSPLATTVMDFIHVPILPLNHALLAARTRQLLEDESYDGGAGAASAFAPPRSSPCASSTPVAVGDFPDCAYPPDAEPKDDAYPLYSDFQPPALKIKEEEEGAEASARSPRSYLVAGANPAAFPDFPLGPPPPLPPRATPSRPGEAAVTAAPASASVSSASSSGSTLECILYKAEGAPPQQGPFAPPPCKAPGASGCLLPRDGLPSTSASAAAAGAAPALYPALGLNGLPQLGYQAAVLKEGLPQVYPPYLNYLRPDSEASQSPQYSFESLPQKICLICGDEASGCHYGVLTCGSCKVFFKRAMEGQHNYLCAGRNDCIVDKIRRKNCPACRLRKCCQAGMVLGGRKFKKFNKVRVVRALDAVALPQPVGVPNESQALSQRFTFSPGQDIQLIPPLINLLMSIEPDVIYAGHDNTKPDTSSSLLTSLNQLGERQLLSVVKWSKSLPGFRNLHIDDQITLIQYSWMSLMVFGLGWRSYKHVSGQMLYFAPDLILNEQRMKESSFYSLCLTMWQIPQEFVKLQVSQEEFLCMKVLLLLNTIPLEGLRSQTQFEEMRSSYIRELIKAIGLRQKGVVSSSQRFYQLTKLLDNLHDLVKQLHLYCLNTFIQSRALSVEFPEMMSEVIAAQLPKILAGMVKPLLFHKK

[6] = test system: Thyroid hormone receptor alpha, THRA (h); experiment: IPP THRA coactivator recruitment (agonist); format: biochemical, human; details: agonist, T3
[7] = test system: Tubulin (r); experiment: IPP Tubulin binding; set-up: species or system rat
[8] = test system: HepG2 cells; experiment: Cell stress panel (CSP), 24 h, 8 concentrations, BIFROST global PoD; format: cell-based; details: HepG2; cell stress panel PoD
Protocol: Compounds were tested using the previously developed cell stress panel ([Hatherell et al. 2020]) and the expanded biomarker panel outlined in Middleton et al. HepG2 cells were treated with all compounds for 24 h across 8 concentrations prior to biomarker analysis. The same plate layout and number of replicates (3 biological and 2 technical) were used as previously for each assay within the panel.

[9] = test system: HepG2 cells; experiment: High-throughput transcriptomics (HTTr, TempO-Seq), HepG2, 24 h; format: cell-based, human; details: HepG2; for pod_httr_bifrost PoD: HTTr BIFROST PoD; for podl_path_minbmd PoD: HTTr minimum pathway BMD(L)
Protocol: (§1) HepG2, HepaRG, and MCF7 cells were treated with each compound for 24 h across a dose range of 7 concentrations and lysed using TempO-Seq lysis buffer (BioSpyder Technologies, proprietary kit, see [Middleton et al. 2022] for method details). Sequencing was performed using TempO-Seq (BioClavis) version 2 of the human whole transcriptome panel and analyzed as described previously in Middleton et al.

[10] = test system: HepaRG cells; experiment: High-throughput transcriptomics (HTTr, TempO-Seq), HepaRG, 24 h; format: cell-based, human; details: HepaRG; for pod_httr_bifrost PoD: HTTr BIFROST PoD; for podl_path_minbmd PoD: HTTr minimum pathway BMD(L)
Protocol: as §1

[11] = test system: MCF7 cells; experiment: High-throughput transcriptomics (HTTr, TempO-Seq), MCF7, 24 h; format: cell-based, human; details: MCF-7; for pod_httr_bifrost PoD: HTTr BIFROST PoD; for podl_path_minbmd PoD: HTTr minimum pathway BMD(L)
Protocol: as §1

[12] = test system: Glutamate receptor ionotropic NMDA 1 non-selective, GRIN1 (r)
[13] = human
[14] = test system: mouse; details: mouse, cited from earlier work
[15] = molecular target: Voltage-dependent L-type Ca2+ channel (dihydropyridine site), CACNA1C (r) (Rattus norvegicus, UniProt P22002); format: binding
Voltage-dependent L-type Ca2+ channel (dihydropyridine site), CACNA1C (r), sequence (P22002 whole entry): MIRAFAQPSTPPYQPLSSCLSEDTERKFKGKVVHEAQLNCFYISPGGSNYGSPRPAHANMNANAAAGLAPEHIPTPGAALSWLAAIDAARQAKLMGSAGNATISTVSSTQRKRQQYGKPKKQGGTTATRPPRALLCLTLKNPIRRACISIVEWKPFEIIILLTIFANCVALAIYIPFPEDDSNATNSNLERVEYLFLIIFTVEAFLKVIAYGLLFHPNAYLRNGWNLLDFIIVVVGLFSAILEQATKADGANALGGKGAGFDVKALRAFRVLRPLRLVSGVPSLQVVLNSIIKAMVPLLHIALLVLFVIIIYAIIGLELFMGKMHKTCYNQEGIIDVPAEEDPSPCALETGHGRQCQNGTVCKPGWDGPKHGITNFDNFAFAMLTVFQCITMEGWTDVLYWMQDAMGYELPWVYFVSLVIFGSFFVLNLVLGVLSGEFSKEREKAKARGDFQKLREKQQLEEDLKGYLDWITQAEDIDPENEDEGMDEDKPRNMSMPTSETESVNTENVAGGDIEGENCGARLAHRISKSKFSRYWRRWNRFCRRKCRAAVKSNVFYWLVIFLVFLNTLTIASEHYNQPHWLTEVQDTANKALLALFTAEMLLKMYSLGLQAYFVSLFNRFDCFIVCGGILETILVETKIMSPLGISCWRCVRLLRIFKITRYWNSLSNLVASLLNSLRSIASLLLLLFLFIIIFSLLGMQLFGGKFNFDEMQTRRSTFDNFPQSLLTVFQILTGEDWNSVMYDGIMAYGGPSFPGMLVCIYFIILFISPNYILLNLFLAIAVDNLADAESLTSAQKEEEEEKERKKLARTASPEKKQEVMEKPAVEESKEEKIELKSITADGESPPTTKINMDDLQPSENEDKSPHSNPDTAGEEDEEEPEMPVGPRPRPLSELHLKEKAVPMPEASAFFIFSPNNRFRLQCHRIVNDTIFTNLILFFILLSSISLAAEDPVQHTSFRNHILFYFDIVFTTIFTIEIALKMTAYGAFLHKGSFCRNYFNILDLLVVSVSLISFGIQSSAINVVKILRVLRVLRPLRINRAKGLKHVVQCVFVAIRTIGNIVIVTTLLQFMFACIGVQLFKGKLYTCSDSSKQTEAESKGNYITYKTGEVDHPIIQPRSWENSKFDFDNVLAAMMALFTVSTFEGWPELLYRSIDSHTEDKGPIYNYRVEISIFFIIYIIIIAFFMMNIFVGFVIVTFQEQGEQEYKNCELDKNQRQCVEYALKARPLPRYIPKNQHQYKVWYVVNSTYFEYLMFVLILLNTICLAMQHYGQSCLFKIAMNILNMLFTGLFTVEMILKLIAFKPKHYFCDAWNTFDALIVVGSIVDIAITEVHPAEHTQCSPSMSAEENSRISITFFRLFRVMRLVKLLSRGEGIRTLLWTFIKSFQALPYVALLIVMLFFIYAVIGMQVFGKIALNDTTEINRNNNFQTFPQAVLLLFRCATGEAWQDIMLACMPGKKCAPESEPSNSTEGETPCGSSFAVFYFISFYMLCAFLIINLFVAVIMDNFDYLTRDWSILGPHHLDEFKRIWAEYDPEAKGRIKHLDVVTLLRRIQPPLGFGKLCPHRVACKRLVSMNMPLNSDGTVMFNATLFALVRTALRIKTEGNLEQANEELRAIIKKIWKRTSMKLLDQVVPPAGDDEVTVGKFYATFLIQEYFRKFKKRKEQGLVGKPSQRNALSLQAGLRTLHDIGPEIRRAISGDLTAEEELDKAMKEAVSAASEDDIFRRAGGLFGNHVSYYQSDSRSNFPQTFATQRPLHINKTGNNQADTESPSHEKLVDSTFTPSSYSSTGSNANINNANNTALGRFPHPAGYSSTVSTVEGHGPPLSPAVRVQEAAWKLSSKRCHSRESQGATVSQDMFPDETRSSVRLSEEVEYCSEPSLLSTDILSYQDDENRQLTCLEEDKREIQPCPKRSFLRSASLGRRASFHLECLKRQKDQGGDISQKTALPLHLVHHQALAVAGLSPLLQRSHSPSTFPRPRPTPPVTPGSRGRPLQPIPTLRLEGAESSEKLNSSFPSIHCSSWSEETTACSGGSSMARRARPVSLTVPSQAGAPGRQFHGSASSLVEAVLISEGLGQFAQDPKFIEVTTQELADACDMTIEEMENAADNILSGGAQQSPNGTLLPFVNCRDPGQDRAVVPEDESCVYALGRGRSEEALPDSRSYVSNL

[16] = 12 healthy female, cited from earlier work
[17] = molecular target: T3, Constitutive androstane receptor CAR, NR1I3 (h) (Homo sapiens, UniProt Q14994); format: biochemical
T3 sequence (Q14994 1-352): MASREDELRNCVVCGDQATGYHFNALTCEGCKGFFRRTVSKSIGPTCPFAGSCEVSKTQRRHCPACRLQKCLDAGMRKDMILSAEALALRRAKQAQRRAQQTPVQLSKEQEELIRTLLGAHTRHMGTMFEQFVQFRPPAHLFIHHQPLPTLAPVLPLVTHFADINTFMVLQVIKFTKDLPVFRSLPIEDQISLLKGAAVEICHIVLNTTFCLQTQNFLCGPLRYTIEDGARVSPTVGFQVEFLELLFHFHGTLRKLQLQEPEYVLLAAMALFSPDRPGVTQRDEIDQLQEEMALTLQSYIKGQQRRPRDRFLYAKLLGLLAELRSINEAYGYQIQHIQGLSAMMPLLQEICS

[18] = molecular target: T4, Estrogen receptor, ER1 (h) (Homo sapiens, UniProt P03372); experiment: IPP ER1 coactivator recruitment (agonist); format: biochemical; details: 100 uM, estriol, * denotes assay interference (2-Amino-6-chloro-4-nitrophenol, HC Red 3)
T4 construct: purchased Eurofins Cerep (SafetyScreen44-based IPP panel)
T4 sequence (P03372 1-595): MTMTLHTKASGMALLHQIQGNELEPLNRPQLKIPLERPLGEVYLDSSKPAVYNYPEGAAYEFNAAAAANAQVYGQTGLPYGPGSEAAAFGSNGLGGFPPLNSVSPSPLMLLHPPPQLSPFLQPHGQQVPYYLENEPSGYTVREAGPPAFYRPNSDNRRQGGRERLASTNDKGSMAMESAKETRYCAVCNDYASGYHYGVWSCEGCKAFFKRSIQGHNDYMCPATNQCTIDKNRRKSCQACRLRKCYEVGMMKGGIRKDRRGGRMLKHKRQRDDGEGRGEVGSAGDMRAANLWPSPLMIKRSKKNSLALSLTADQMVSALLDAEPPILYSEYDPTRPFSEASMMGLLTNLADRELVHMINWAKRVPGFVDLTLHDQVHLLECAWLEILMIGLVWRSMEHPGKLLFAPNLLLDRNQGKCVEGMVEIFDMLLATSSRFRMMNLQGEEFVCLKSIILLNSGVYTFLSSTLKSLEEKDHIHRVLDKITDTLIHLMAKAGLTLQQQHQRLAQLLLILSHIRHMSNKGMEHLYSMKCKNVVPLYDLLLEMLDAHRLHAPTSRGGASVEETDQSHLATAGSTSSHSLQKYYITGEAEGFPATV

[19] = molecular target: T4, Estrogen receptor, ER1 (h); experiment: IPP ER1 coactivator recruitment (antagonist); format: biochemical; details: 100 uM, estriol, * denotes assay interference (2-Amino-6-chloro-4-nitrophenol, HC Red 3)
[20] = test system: 63 targets with known safety liabilities; experiment: In vitro pharmacological profiling (IPP) panel, screening at 10 or 100 µM and dose response, minimum IC50/AC50; format: biochemical; details: lowest AC50 across IPP panel (systemic targets); cell_type -; read-out: ipp_lowest_ac50_systemic PoD
[21] = molecular target: Potassium voltage-gated channel subfamily H member 2 hERG, KCNH2 (h) (Homo sapiens, UniProt Q12809); details: human, 100 µM
Potassium voltage-gated channel subfamily H member 2 hERG, KCNH2 (h), sequence (Q12809 whole entry): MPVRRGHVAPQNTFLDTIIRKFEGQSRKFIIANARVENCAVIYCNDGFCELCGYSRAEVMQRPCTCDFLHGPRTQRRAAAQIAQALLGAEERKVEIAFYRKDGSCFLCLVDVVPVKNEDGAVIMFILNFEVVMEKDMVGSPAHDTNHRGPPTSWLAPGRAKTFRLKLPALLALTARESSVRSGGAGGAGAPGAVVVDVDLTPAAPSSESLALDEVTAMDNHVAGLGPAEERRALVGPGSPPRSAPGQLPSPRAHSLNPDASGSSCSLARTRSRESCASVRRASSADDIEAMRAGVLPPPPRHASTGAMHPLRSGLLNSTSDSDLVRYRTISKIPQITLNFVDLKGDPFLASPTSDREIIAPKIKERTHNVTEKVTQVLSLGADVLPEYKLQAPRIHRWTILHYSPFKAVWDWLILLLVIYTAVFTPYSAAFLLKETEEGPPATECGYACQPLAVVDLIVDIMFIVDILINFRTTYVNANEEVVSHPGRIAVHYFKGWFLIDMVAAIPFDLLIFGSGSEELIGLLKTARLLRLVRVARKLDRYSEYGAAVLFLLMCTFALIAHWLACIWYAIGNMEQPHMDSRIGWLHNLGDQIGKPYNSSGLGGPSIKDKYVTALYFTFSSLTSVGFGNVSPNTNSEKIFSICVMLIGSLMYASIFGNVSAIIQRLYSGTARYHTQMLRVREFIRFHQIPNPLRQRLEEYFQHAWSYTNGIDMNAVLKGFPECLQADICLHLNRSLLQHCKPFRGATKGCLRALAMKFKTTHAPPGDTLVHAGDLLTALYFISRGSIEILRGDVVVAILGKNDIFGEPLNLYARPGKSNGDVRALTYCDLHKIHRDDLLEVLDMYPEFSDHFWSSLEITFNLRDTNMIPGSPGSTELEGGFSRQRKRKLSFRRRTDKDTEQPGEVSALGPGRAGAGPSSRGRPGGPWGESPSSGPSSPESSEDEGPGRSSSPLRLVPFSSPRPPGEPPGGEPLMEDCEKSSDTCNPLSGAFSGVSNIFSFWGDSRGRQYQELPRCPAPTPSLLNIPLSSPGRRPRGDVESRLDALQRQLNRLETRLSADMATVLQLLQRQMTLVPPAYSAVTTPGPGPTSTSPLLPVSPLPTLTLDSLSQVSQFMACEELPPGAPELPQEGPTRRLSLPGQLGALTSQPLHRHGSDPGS

[22] = molecular target: T5, Pregnane X receptor PXR, NR1I2 (h) (Homo sapiens, UniProt O75469)
T5 sequence (O75469 1-434): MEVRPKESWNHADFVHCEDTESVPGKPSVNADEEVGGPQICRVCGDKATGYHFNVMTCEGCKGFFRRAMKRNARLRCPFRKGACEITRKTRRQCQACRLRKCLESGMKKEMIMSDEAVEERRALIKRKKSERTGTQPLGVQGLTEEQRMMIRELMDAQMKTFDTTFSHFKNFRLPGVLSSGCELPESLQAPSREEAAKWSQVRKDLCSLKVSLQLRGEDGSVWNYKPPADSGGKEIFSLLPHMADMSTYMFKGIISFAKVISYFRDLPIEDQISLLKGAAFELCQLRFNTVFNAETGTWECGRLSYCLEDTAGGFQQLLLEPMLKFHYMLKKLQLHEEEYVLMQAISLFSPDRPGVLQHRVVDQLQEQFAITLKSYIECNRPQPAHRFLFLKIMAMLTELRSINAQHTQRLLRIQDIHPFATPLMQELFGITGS

[23] = test system: rat; details: ref [2], cited from earlier work
[24] = PBK level L2; per chemical see Peff Reference; ref [3],[4],[11]; cited from earlier work
[25] = 100 uM, * denotes assay interference (2-Amino-6-chloro-4-nitrophenol, HC Red 3)
[26] = 100 uM, ligand/control Colchicine
[27] = IPP screening at 100 uM, control CGS 19755
[28] = Oral 50 mg (IR: Capsule), fasted, calibration, ref Huttner et al. 2018
[29] = human, Oral 100 mg, Fasted, validation, ref Huttner et al., Journal of Antimicrobial Chemotherapy (2018) 74(6): 1656-1661

SMILES | Specific binding [2] | Specific binding [3] | Specific binding ([4]; IPP screening at 100 uM) | IPP screening %, Coactivator recruitment [6, 25] | IPP screening %, Specific binding [7, 26] | pod_cell_stress PoD [8] | pod_httr_bifrost PoD [9] | podl_path_minbmd PoD [9] | pod_httr_bifrost PoD [10] | podl_path_minbmd PoD [10] | pod_httr_bifrost PoD [11] | podl_path_minbmd PoD [11] | Specific binding [12, 27] | risk [13] | other results
O=P1(N(CCCl)CCCl)NCCCO1 (stereo not shown) [Cyclophosphamide, 2-[Bis(2-chloroethyl)amino]-1,3,2lambda~5~-oxazaphosphinan-2-one] | 19.4% | 12.4% | 15.0% | -1.0% | -4.0% | 3.329 µM | 118.124 µM | 783.625 µM | 7.071 µM | 31.838 µM | 0.08892 µM | 210.107 µM | 6.8% | 1 | Specific binding [1]: 17.5%; EC50 [5]: > 300 µM; PoD (NOAEL) ([14]; 42 days, developmental neurotox study, ref ToxRefDB/Paul-Friedman et al. (2020)/regulatory opinions): 45 mg/kg bw/day
O=C1CN(N=Cc2ccc([N+](=O)[O-])o2)C(=O)N1 [Nitrofurantoin, 1-{[(5-Nitrofuran-2-yl)methylidene]amino}imidazolidine-2,4-dione] | 7.2% | 4.4% | – | – | – | 0.5175 µM | 0.5233 µM | 2.98 µM | 0.1863 µM | 2.332 µM | 0.3553 µM | 7.519 µM | – | 1 | Specific binding [15]: -6.9%; Specific binding ([1]; IPP screening at 10 uM, control α-dendrotoxin): -14.6%; Specific binding ([4]; IPP screening at 10 uM): 37.8%; IPP screening %, Coactivator recruitment ([6]; 10 uM): 0.0%; IPP screening %, Specific binding [7]: 7.0%; Specific binding [12]: -2.8%; PoD (NOAEL) ([14]; in vivo): 60 mg/kg bw/day; Reported AUC0-t [16, 28]: 3040 to 6400 ng·h/mL; Reported cmax [16, 28]: 0.21 to 0.45 mg/L; Reported tmax [16, 28]: 30 to 300 min; Reported AUC0-t [16, 29]: 940 to 10970 ng·h/mL; Reported cmax [16, 29]: 0.22 to 1.26 mg/L; Reported tmax [16, 29]: 30 to 300 min
Nc1cc([N+](=O)[O-])cc(Cl)c1O [2-Amino-6-chloro-4-nitrophenol] | – | – | 3.6% | 41.0* % | 5.0% | 0.2197 µM | 0.8029 µM | 158.096 µM | 1.518 µM | 35.7772 µM | 0.4471 µM | 9.316 µM | 21.2% | 0 | Specific binding ([1]; IPP screening at 100 uM, control α-dendrotoxin): 13.7%; Specific binding ([2]; IPP screening at 100 uM, control diazepam): 14.3%; Specific binding ([3]; IPP screening at 100 uM, control veratridine): 31.5%; IPP Dose Response PoD: CAR antagonist effect [17]: [40.9,86.1]; IPP screening %, Coactivator recruitment [18]: 6.0* %; IPP screening %, Coactivator recruitment [19]: -9.0* %; AC50 [20]: 1.53 µM; IPP screening %, Specific binding [21]: 10.7%; IPP Dose Response PoD: PXR antagonist [22]: [37.1,80.3]; NOAEL ([23]; 90-day rat study, increased liver weights): 10 mg/kg bw/day; dose up to which no maternal or fetal effects were observed ([23]; reproductive and developmental toxicity rat study): 90 mg/kg bw/day; Peff [24]: 7.96 cm/s x E-04
